{
  "source": "paper PMC3691600",
  "about": "“Conversion of fatty aldehydes into alk (a/e)nes by in vitro reconstituted cyanobacterial aldehyde-deformylating oxygenase with the cognate electron transfer system” (Biotechnology for Biofuels, 2013)",
  "target": "FNR (SynPcc7942_0978) (Synechococcus elongatus, UniProt Q31PL1)",
  "sequence (Q31PL1 1-403)": "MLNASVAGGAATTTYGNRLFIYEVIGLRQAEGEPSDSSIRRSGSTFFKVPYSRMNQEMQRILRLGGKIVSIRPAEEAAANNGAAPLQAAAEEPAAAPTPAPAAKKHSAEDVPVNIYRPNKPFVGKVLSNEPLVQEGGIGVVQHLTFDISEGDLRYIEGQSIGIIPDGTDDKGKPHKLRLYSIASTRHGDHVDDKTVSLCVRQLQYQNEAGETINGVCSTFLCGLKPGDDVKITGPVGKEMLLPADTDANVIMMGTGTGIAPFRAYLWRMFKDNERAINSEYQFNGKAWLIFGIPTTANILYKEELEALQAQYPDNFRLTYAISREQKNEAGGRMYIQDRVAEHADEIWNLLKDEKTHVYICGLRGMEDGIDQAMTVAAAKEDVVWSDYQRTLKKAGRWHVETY",
  "test": "UV/vis absorption spectrum of purified enzyme",
  "assay_type": "binding",
  "settings": "noncovalently bound; as purified; flavin identity inferred from spectrum and FNR homology",
  "data": [
    {"smiles": "Cc1cc2nc3c(=O)[nH]c(=O)nc-3n(C[C@H](O)[C@H](O)[C@H](O)COP(=O)(O)OP(=O)(O)OC[C@H]3O[C@@H](n4cnc5c(N)ncnc54)[C@H](O)[C@@H]3O)c2cc1C", "note": "[FAD]", "values": [
      {"measurement": "UV/vis absorption spectrum of purified enzyme", "value": "demonstrating that FNR is certainly a flavoprotein"}
    ]}
  ]
}
